Laboratory results as given in patent publication US6627732B1, “Glutathione derivatives and their dosage forms” (Teijin Limited, priority 1998, dated 2003).
Counter-ions that a name gives are not always drawn. Starred links: 1 amine or outer side, 2 acyl side, 3 side chain; linkers in the order of their positions; H or OH if unused. Non-standard residues stand in square brackets, D forms with d. Residues, ends and D or L forms follow the SMILES beside them. *: point of attachment. γGlu = O=C(O)[C@H](CCC(=O)[*:2])N[*:1]; dPhg = N[C@@H](C(=O)O)c1ccccc1; Bn = c1ccc(C*)cc1

How the values were obtained:
[1] = Pharmacokinetics after intravenous administration to rabbits, 2-compartment model (Example 25); assay type: in vivo, rabbit; settings: iv auricular vein 2 ml/kg, fat emulsion (Comparative Ex. 1: HPCD/glucose solution)
Text: For the glutathione derivative of the present invention having a long-chain ester having 12 carbons or more and the glutathione derivatives of the conventional technology of Comparative Examples 1 and 2, kinetics in the blood were compared in rabbits that are a species having allow esterase activity in the blood.
(1) Male Japanese white rabbits, 12-week old or older, were purchased from Ichikawaya, and those rabbits that became 15-week old or older and whose body weight reached about 3 kg were used for the experiment. During the period up to the experiment, the animals were allowed free access to the animal feed and drinking water and were kept at a temperature of 24±2° C. and a humidity of 55±5%.
(2) The glutathione derivative having a long-chain ester of 12 carbons or more and the glutathione derivative of Comparative Example 2 were prepared at 20-200 mg/ml in a mixture of ethanol or ethanol:benzyl alcohol, which was mixed with the fat emulsion just prior to use, and was filtered with a 1.2 μm filter to obtain a liquid for intravenous administration. On the other hand, the glutathione derivative of Comparative Example 1 was dissolved in an aqueous solution of 6%-hydroxypropyl-β-cyclodextrin/5%-glucose at 15 mg/ml to obtain an administration liquid.
(3) The administration liquid of the glutathione derivative obtained in (2) at a dose of 2 ml/kg was rapidly infused into the left auricular vein of the rabbits under no anesthesia and under restraint at a rate of 1 ml/min. Each glutathione derivative was given to three or more rabbits. At 5, 10, 15, 30, 60, 120, and 240 minutes after the completion of the administration, 1 ml of the blood was drawn from the right auricular vein in the presence of heparin, which was immediately cooled on ice. Plasma was obtained by centrifuging the blood, 1-2 volume parts of acetonitrile was added to deproteinize the supernatant, which was filtered by a 0.5 μm filter. The supernatant of the filtrate was quantitated by HPLC.

rabbit liver esterase = test: Decomposition of glutathione derivatives by rabbit liver esterase (physiological stability); assay type: in vitro ADME; settings: BSA/D-PBS pH 7.4, 196-244 μg/ml
Protocol: (1) Bovine serum albumin (hereinafter referred to as BSA), Dulbecco's phosphate buffered saline (hereinafter referred to as D-PBS), swine liver esterase, and rabbit liver esterase were purchased from Sigma, 6-week old male SD rats were purchased from Nippon SLC, and 12-week old or older male Japanese white rabbits were purchased from Ichikawaya. On the day of the incubation experiment described below, blood was drawn from the animals in the presence of heparin, and plasma was separated therefrom for use. Human plasma was obtained from normal healthy males after obtaining their consent.
(2) The glutathione derivatives described in the Examples and Comparative Examples of the present invention were incubated for a fixed time in an enzyme solution having the following composition. Acetonitrile was added to the reaction mixture to inactivate the enzyme thereby to stop the reaction. The concentration of the glutathione derivatives in the deproteinized supernatant was measured by HPLC. For each time point of the esterase enzyme experiment, the mean values from two measurement or more were determined, and for the rats and rabbits the mean values of plasma samples from three individuals were determined. For some of the experiment data, changes with time of percentages relative to initial concentration of the glutathione derivative are shown in FIGS. 2 to 4.
Swine liver esterase and rabbit liver esterase experiment
30 mg-BSA/ml-D-PBS (pH 7.4): 36 to 45 parts
Swine or rabbit liver esterase/D-PBS: 4-5 parts
10 mg-glutathione derivative/ml-ethanol: one part (the final concentration in the reaction mixture is 196-244 μg/ml)

HL-60 cells = test: HL-60 cell differentiation induction, NBT reducing activity, DMSO as solvent (Example 21); assay type: cell-based, human
Text: In a manner similar to that in Example 20, the in vitro activity of the glutathione derivatives of Examples 4, 5, and 8, and Comparative Example 3 were compared.
(1) The differences from Example 20 were: First, since the glutathione derivatives of Examples and Comparative Examples used dimethyl sulfoxide (DMSO) as the solvent because of the solubility of the compounds, the system contained 0.1-0.3 (v/v)% DMSO instead of ethanol. […] This caused slight differences in the sensitivity in the test results of the glutathione derivative of Example 4. Furthermore, in Example 21, the differentiation induction on HL-60 cells into granulocytic cells in the coexistence of 9-cis-RA was only evaluated.

[2] = test system: human leukemia cell HL-60; test: HL-60 cell differentiation induction, NBT reducing activity (Example 20); assay type: cell-based; settings: 4 days
Protocol: Using the differentiation induction effect on the granulocytes or monocytes/macrophages obtained by culturing the human leukemia cell HL-60 in the presence of 9-cys-retinoic acid (9-cis-RA) or activated vitamin D3 (1α, 25(OH)2D3), and in the coexistence of the glutathione derivatives of Examples and the Comparative Examples of the present invention, the growth-promotion activity was tested.
(1) HL-60 cells used were purchased from the cell bank (Japanese Cancer Research Resource Bank, Cell No. JCRBOO85). In accordance with a standard method, the lyophilized cell stocks that were thawed before the start of the experiment and subcultured were used.
Subculturing was carried out by centrifuging (1500 rpm, 5 minutes) the cells in suspension culture and recovering and by diluting it in a fresh culture liquid at a concentration of about 1/100 (1 to 2×10^4 cells/ml). As the culture liquid, an RPMI 1640 medium containing 10% fetal bovine serum was used.
(2) The cells subcultured in (1) were recovered by centrifugation (1500 rpm, 5 minutes), and were dispersed in the culture liquid at 2×10^4 cells/ml, which were plated on a 24-well culture plate at 1 ml/well. To this system were added the glutathione derivatives of Example 4, Example 11, Comparative Example 1 and Comparative Example 2 and a differentiation induction substance (9-cis-RA or 1α, 25(OH)2D3). Thus, 1 μl per well each of an ethanol solution of the differentiation induction substances 9-cis-RA and 1α, 25(OH)2D3 were added at 5×10^−6 M and 2×10^−6 M, respectively. Then, 1 μl per well each of ethanol solutions of the glutathione derivatives at 1×10^−4 M to 1×10^−2 M was added. As the solvent treatment for the control, 1 μl of ethanol per well was added in stead of the glutathione derivative, and as the single treatment of glutathione derivatives, 1 μl of ethanol per well was added in stead of the differentiation induction substance. After culturing at 37° C. and 5% CO2 for 4 days, the cells were recovered by centrifugation (1500 rpm, 5 minutes).
(3) The measurement of a nitroblue tetrazolium (NBT) reducing activity which is often used for the evaluation of differentiation induction effects on monocytes/macrophages or granulocytic cells was carried out according to the following procedure. Thus, the cells recovered by centrifugation in (2) were suspended in a fresh culture medium, and then NBT was added thereto to […] and 12-O-tetradecanoyl phorbol-13-acetate to 100 nM. After incubating at 37° C. for 25 minutes, cytospin samples were prepared. After air drying, the cells were subjected to Kernechtrot stain, and 500 cells per sample were examined under alight microscope to determine the ratio of the NBT reduction activity-positive cells.
(4) The result of the experiment in which glutathione derivatives at 10^−7 to 10^−5 M were treated together with a differentiation induction substances is shown in Table 4. For a single treatment of each glutathione derivative up to 10^−5 M, no increases in the NBT reducing activity was observed. In a combined treatment of a glutathione derivative and a differentiation induction substance, an enhanced ratio of the NBT reduction activity-positive cells relative to the single treatment with a differentiation induction substance was observed depending on the concentration of the glutathione derivative. There were no major differences observed in the strength of effects between the glutathione derivatives of Examples 4 and 11 and Comparative Examples 1, and 2.

[3] = compound 3 × 10^−6 M in DMSO, Solvent control (EtOH - 0.1%)
[4] = compound 3 × 10^−6 M in DMSO, with 9-cis-RA (5 × 10^−9 M)
[5] = compound 3 × 10^−7 M in DMSO, Solvent control (EtOH - 0.1%)
[6] = compound 3 × 10^−7 M in DMSO, with 9-cis-RA (5 × 10^−9 M)
[7] = compound 3 × 10^−8 M in DMSO, Solvent control (EtOH - 0.1%)
[8] = compound 3 × 10^−8 M in DMSO, with 9-cis-RA (5 × 10^−9 M)
[9] = compound 10^−6 M in DMSO, Solvent control (EtOH - 0.1%)
[10] = compound 10^−6 M in DMSO, with 9-cis-RA (5 × 10^−9 M)
[11] = compound 10^−7 M in DMSO, Solvent control (EtOH - 0.1%)
[12] = compound 10^−7 M in DMSO, with 9-cis-RA (5 × 10^−9 M)
[13] = compound 10^−8 M in DMSO, Solvent control (EtOH - 0.1%)
[14] = compound 10^−8 M in DMSO, with 9-cis-RA (5 × 10^−9 M)

Structure (SMILES)	Ratio of NBT reduction activity-positive cells (HL-60 cells; [3]) [%]	Ratio of NBT reduction activity-positive cells (HL-60 cells; [4]) [%]	Ratio of NBT reduction activity-positive cells (HL-60 cells; [5]) [%]	Ratio of NBT reduction activity-positive cells (HL-60 cells; [6]) [%]	Ratio of NBT reduction activity-positive cells (HL-60 cells; [7]) [%]	Ratio of NBT reduction activity-positive cells (HL-60 cells; [8]) [%]	Ratio of NBT reduction activity-positive cells (HL-60 cells; [9]) [%]	Ratio of NBT reduction activity-positive cells (HL-60 cells; [10]) [%]	Ratio of NBT reduction activity-positive cells (HL-60 cells; [11]) [%]	Ratio of NBT reduction activity-positive cells (HL-60 cells; [12]) [%]	Ratio of NBT reduction activity-positive cells (HL-60 cells; [13]) [%]	Ratio of NBT reduction activity-positive cells (HL-60 cells; [14]) [%]	other results
CCCCCCCCCCCCCCCCCCCCCCOC(=O)[C@@H](N)CCC(=O)N[C@@H](CSCc1ccccc1)C(=O)N[C@@H](C(=O)OCC)c1ccccc1.Cl [Example 2, Glu(Cys(Bzl)-D-Phg-OEt)-O(Docosyl)hydrochloride]													Clearance per body weight [1]: 0.83 mL/min/kg; Distribution volume per body weight of the central compartment [1]: 0.07 L/kg; Decomposition rate constant by rabbit liver esterase (rabbit liver esterase): 0.523 10^−4/unit/min
CCCCCCCCCCCCCCCCOC(=O)[C@H](CCC(=O)N[C@@H](CSCc1ccccc1)C(=O)N[C@@H](C(=O)OCC)c1ccccc1)NC(C)=O [Example 5, Ac-Glu(Cys(Bzl)-D-Phg-OEt)-O(Hexadecyl)]	0.2	11.2	0.7	4.3	0.7	2.1	0.3	6.5	0.9	3.2	0.3	2.5	
CCCCCCCCCCCCCCCCOC(=O)[C@H](NC(=O)[C@H](CSCc1ccccc1)NC(=O)CC[C@H](N)C(=O)OCC)c1ccccc1.Cl [Example 8, Glu(Cys(Bzl)-D-Phg-O(Hexadecyl))-OEt Hydrochloride]	0.7	16.9	0.9	4.7	0.4	3.2	0.8	8.8	0.8	4.2	0.5	2.9	
CCCCCCCCCCCCCCCCOC(=O)[C@H](NC(=O)[C@H](CSCc1ccccc1)NC(=O)CC[C@H](N)C(=O)O)c1ccccc1.Cl [Example 11, Glu(Cys(Bzl)-D-Phg-O(Hexadecyl))Hydrochloride]													Ratio of NBT reduction activity-positive cells ([2]; compound 10^−5 M, Solvent control (EtOH), no differentiation induction substance): 0.8%; Ratio of NBT reduction activity-positive cells ([2]; compound 10^−5 M, with 1α,25(OH)2D3 (2 × 10^−9 M)): 13.8%; Ratio of NBT reduction activity-positive cells ([2]; compound 10^−5 M, with 9-cis-RA (5 × 10^−9 M)): 19.8%; Ratio of NBT reduction activity-positive cells ([2]; compound 10^−6 M, Solvent control (EtOH), no differentiation induction substance): 0.2%; Ratio of NBT reduction activity-positive cells ([2]; compound 10^−6 M, with 1α,25(OH)2D3 (2 × 10^−9 M)): 4.8%; Ratio of NBT reduction activity-positive cells ([2]; compound 10^−6 M, with 9-cis-RA (5 × 10^−9 M)): 11.2%; Ratio of NBT reduction activity-positive cells ([2]; compound 10^−7 M, Solvent control (EtOH), no differentiation induction substance): 0.6%; Ratio of NBT reduction activity-positive cells ([2]; compound 10^−7 M, with 1α,25(OH)2D3 (2 × 10^−9 M)): 5.1%; Ratio of NBT reduction activity-positive cells ([2]; compound 10^−7 M, with 9-cis-RA (5 × 10^−9 M)): 8.8%
N[C@@H](CCC(=O)N[C@@H](CSCc1ccccc1)C(=O)N[C@@H](C(=O)O)c1ccccc1)C(=O)O [Comparative Example 3, Glu(Cys(Bzl)-D-Phg-OH)-OH Hydrochloride, reference compound] (γGlu-Cys(Bn)-[dPhg]-OH)	0.6	17.1	0.6	3.8	0.5	2.8	0.3	6.1	0.3	3.5	0.7	3.1	
